One may read the mass density as the mass of a sample divided by its volume.

This passage reports mass density results from the NIST ThermoML archive (doi:10.1016/j.jct.2015.11.028).

Structures are written as SMILES. ± gives the expanded uncertainty stated by the source.

The series can be described thus: mn = molality of the nth substance listed, in mol/kg. Conditions: 298.15 K, 100 kPa, Liquid, Vibrating tube method.

In the case of `C[N+](C)(C)C[C@H](O)CC(=O)[O-]` [(R)-3-hydroxy-4-(trimethylammonio)butanoate] + O, the mass density (m1 = 0.8817) stood at 1023.6 ± 0.21 kg/m3.

With `[Cl-].[K+]` [potassium chloride] + O, the mass density is recorded as 1019.83 ± 0.11 kg/m3 (m1 = 0.5); 1041.41 ± 0.11 kg/m3 (m1 = 0.9998); 1062.03 ± 0.12 kg/m3 (m1 = 1.499); 1081.48 ± 0.12 kg/m3 (m1 = 2); 1100.25 ± 0.12 kg/m3 (m1 = 2.499); 1117.69 ± 0.13 kg/m3 (m1 = 2.98).

As for `[Br-].[Na+]` [sodium bromide] + O, the mass density runs as follows: (m1 = 0.5) 1035.42 ± 0.11 kg/m3; (m1 = 0.9999) 1072.67 ± 0.12 kg/m3; (m1 = 1.5) 1107.94 ± 0.13 kg/m3; (m1 = 2) 1142.48 ± 0.14 kg/m3; (m1 = 2.5) 1175.65 ± 0.14 kg/m3; (m1 = 2.999) 1207.24 ± 0.15 kg/m3.

For `[Cl-].[Na+]` [sodium chloride] + O, the mass density reads like this: (m1 = 1) 1036.18 ± 0.11 kg/m3; (m1 = 1.5) 1054.74 ± 0.12 kg/m3; (m1 = 2) 1072.27 ± 0.12 kg/m3; (m1 = 2.499) 1089.16 ± 0.12 kg/m3; (m1 = 3) 1105.67 ± 0.13 kg/m3.
